Data set [1] concerns Syrian golden hamster. Nature of the data set: Toxicity in Syrian golden hamster assessed as weight gain at 25 mg/kg, po. The format is organism-based, Mesocricetus auratus. More on the design: dose 25 mg/kg, route oral. The note with it: in vivo.
Data set [2] relates to Syrian golden hamster. As to the kind of experiment: Toxicity in Syrian golden hamster assessed as effect of food intake at 25 mg/kg, po. Type of data set: organism-based, Mesocricetus auratus. Details: dose 25 mg/kg, route oral. The note with it: in vivo.
The test system of data set [3] is Syrian golden hamster. As to the kind of experiment: Hypolipidemic activity in high fat diet fed Syrian golden hamster assessed as reduction of triglyceride level at 25 mg/kg, po for 7 days. Type of data set: functional, Mesocricetus auratus. More on the design: scale not given: the % may be the effect or the level left.
In data set [4] the test system is Syrian golden hamster. As to the kind of experiment: Hypolipidemic activity in high fat diet fed Syrian golden hamster assessed as reduction of total cholesterol level at 25 mg/kg, po for 7 days. The format is functional, Mesocricetus auratus. More on the design: scale not given: the % may be the effect or the level left.
In data set [5] the test system is Syrian golden hamster. As to the kind of experiment: Hypolipidemic activity in high fat diet fed Syrian golden hamster assessed as reduction of glycerol level at 25 mg/kg, po for 7 days. The format is functional, Mesocricetus auratus. Details: scale not given: the % may be the effect or the level left.
Data set [6] concerns the target T1, 3-hydroxy-3-methylglutaryl-coenzyme A reductase (Homo sapiens, UniProt P04035).
T1 sequence (P04035 whole entry): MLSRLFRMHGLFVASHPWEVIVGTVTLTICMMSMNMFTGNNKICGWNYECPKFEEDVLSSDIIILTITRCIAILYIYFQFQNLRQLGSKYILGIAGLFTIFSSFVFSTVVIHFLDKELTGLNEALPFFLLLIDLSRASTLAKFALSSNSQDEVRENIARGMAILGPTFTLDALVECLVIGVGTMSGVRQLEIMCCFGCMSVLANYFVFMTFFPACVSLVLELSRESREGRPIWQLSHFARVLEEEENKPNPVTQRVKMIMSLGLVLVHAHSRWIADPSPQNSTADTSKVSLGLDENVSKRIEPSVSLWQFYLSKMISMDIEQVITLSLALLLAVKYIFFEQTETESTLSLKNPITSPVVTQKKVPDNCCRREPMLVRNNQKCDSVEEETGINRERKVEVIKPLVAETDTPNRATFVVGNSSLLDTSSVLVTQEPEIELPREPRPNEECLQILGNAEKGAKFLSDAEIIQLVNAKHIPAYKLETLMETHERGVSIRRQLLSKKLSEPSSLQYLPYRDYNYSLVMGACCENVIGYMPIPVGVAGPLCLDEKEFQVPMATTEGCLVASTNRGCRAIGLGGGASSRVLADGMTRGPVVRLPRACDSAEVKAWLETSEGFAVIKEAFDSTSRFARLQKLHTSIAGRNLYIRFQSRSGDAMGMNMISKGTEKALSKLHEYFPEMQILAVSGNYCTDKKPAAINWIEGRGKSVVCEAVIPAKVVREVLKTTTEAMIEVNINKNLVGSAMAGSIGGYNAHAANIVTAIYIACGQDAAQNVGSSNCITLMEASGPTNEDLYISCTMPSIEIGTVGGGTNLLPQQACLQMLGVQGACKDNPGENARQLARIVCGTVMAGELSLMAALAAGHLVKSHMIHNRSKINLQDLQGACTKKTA
Nature of the data set: Inhibition of HMG-CoA reductase using HMG-CoA as substrate by spectrophotometry in presence of NADPH.

The subject of data set [7] is Syrian golden hamster. Nature of the data set: Hypolipidemic activity in high fat diet fed Syrian golden hamster assessed as increase in HDL-cholesterol-total cholesterol ratio at 25 mg/kg, po for 7 days. The format is functional, Mesocricetus auratus.
Data set [8] relates to Syrian golden hamster. As to the kind of experiment: Hypolipidemic activity in high fat diet fed Syrian golden hamster assessed as increase in HDL-cholesterol-total cholesterol ratio at 5 mg/kg, po for 7 days. Type of data set: functional, Mesocricetus auratus.
A short description of data set [9]: Apparent oral clearance in high fat diet fed Syrian golden hamster at 25 mg/kg, po. Details: dose 25 mg/kg, route oral. Type of data set: ADME, organism-based, Mesocricetus auratus. The note with it: in vivo.
Data set [10] has as its system Syrian golden hamster. Nature of the data set: Hypolipidemic activity in high fat diet fed Syrian golden hamster assessed as reduction of triglyceride level at 10 mg/kg, po for 7 days. Type of data set: functional, Mesocricetus auratus. More on the design: scale not given: the % may be the effect or the level left.
In data set [11] the test system is Syrian golden hamster. As to the kind of experiment: Hypolipidemic activity in high fat diet fed Syrian golden hamster assessed as reduction of glycerol level at 100 mg/kg, po for 7 days. Type of data set: functional, Mesocricetus auratus. Details: scale not given: the % may be the effect or the level left.
Data set [12] deals with Syrian golden hamster. Nature of the data set: Hypolipidemic activity in high fat diet fed Syrian golden hamster assessed as reduction of triglyceride level at 100 mg/kg, po for 7 days. The format is functional, Mesocricetus auratus. Details: scale not given: the % may be the effect or the level left.
In data set [13] the test system is Syrian golden hamster. As to the kind of experiment: Hypolipidemic activity in high fat diet fed Syrian golden hamster assessed as reduction of total cholesterol level at 100 mg/kg, po for 7 days. Type of data set: functional, Mesocricetus auratus. Details: scale not given: the % may be the effect or the level left.
In data set [14] the test system is Syrian golden hamster. As to the kind of experiment: Hypolipidemic activity in high fat diet fed Syrian golden hamster assessed as reduction of triglyceride level at 50 mg/kg, po for 7 days. The format is functional, Mesocricetus auratus. More on the design: scale not given: the % may be the effect or the level left.
The test system of data set [15] is Syrian golden hamster. Nature of the data set: Hypolipidemic activity in high fat diet fed Syrian golden hamster assessed as reduction of total cholesterol level at 10 mg/kg, po for 7 days. Type of data set: functional, Mesocricetus auratus. More on the design: scale not given: the % may be the effect or the level left.
Data set [16] is described as follows: Cmax in high fat diet fed Syrian golden hamster at 25 mg/kg, po. Type of data set: ADME, organism-based, Mesocricetus auratus. More on the design: dose 25 mg/kg, route oral. Particulars: in vivo.
Data set [17] has as its system Syrian golden hamster. Nature of the data set: Hypolipidemic activity in high fat diet fed Syrian golden hamster assessed as reduction of glycerol level at 50 mg/kg, po for 7 days. More on the design: scale not given: the % may be the effect or the level left. The format is functional, Mesocricetus auratus.
Data set [18] concerns Syrian golden hamster. Nature of the data set: Hypolipidemic activity in high fat diet fed Syrian golden hamster assessed as increase in HDL-cholesterol-total cholesterol ratio at 10 mg/kg, po for 7 days. The format is functional, Mesocricetus auratus.
Data set [19] relates to Syrian golden hamster. As to the kind of experiment: Hypolipidemic activity in high fat diet fed Syrian golden hamster assessed as reduction of triglyceride level at 5 mg/kg, po for 7 days. Type of data set: functional, Mesocricetus auratus. More on the design: scale not given: the % may be the effect or the level left.
Data set [20] concerns Syrian golden hamster. Nature of the data set: Apparent volume of distribution in high fat diet fed Syrian golden hamster at 25 mg/kg, po. Details: dose 25 mg/kg, route oral. The note with it: in vivo. Type of data set: ADME, organism-based, Mesocricetus auratus.
For data set [21], the system named is Syrian golden hamster. As to the kind of experiment: Hypolipidemic activity in high fat diet fed Syrian golden hamster assessed as reduction of total cholesterol level at 5 mg/kg, po for 7 days. Type of data set: functional, Mesocricetus auratus. More on the design: scale not given: the % may be the effect or the level left.
Data set [22] is described as follows: Mean residence time in high fat diet fed Syrian golden hamster at 25 mg/kg, po. Particulars: in vivo. More on the design: dose 25 mg/kg, route oral. The format is ADME, organism-based, Mesocricetus auratus.
Data set [23] is described as follows: Tmax in high fat diet fed Syrian golden hamster at 25 mg/kg, po. Details: dose 25 mg/kg, route oral. Type of data set: ADME, organism-based, Mesocricetus auratus. Particulars: in vivo.
For data set [24], the system named is Syrian golden hamster. As to the kind of experiment: Hypolipidemic activity in high fat diet fed Syrian golden hamster assessed as reduction of total cholesterol level at 50 mg/kg, po for 7 days. More on the design: scale not given: the % may be the effect or the level left. Type of data set: functional, Mesocricetus auratus.
The test system of data set [25] is Syrian golden hamster. Nature of the data set: Hypolipidemic activity in high fat diet fed Syrian golden hamster assessed as increase in HDL-cholesterol-total cholesterol ratio at 100 mg/kg, po for 7 days. The format is functional, Mesocricetus auratus.
For data set [26], the system named is Syrian golden hamster. Nature of the data set: Hypolipidemic activity in high fat diet fed Syrian golden hamster assessed as reduction of glycerol level at 10 mg/kg, po for 7 days. Details: scale not given: the % may be the effect or the level left. Type of data set: functional, Mesocricetus auratus.
Data set [27] has as its system Syrian golden hamster. Nature of the data set: Hypolipidemic activity in high fat diet fed Syrian golden hamster assessed as reduction of glycerol level at 5 mg/kg, po for 7 days. The format is functional, Mesocricetus auratus. Details: scale not given: the % may be the effect or the level left.
Data set [28] can be described thus: AUC (0 to t) in high fat diet fed Syrian golden hamster at 25 mg/kg, po. The note with it: plasma. More on the design: dose 25 mg/kg, route oral. The format is ADME, organism-based, Mesocricetus auratus.
The test system of data set [29] is Syrian golden hamster. As to the kind of experiment: Hypolipidemic activity in high fat diet fed Syrian golden hamster assessed as increase in HDL-cholesterol-total cholesterol ratio at 50 mg/kg, po for 7 days. The format is functional, Mesocricetus auratus.

Each structure is given as a SMILES string.

As for `CC1=C(C=O)CC2[C@@]1(C)CC[C@@H](C)[C@]2(C)CCC1=CC(=O)O[C@@H]1O` (mixture of isomers), the Activity result in the data set on Syrian golden hamster [1] and in the data set on Syrian golden hamster [2] was “Non-toxic” each time.

For `CC[C@H](C)C(=O)O[C@H]1C[C@@H](C)C=C2C=C[C@H](C)[C@H](CC[C@@H]3C[C@@H](O)CC(=O)O3)[C@H]21` [LOVASTATIN], the values for the Activity in the data set with Syrian golden hamster [3], with Syrian golden hamster [4] and in the data set with Syrian golden hamster [5] were 29%, 9% and 35%, respectively.

Take `C=C1[C@@H](O)CC[C@@H]2[C@@](C)(CCC3=CC(=O)O[C@@H]3O)[C@H](C)CC[C@@]12C`: the Activity entry with Syrian golden hamster [1] and in the data set with Syrian golden hamster [2] was “Non-toxic” each time.

In the case of `CC1=CCC[C@@H]2[C@@](C)(CC/C(C=O)=C\C(=O)O)[C@H](C)CC[C@@]12C`, the Activity entry in the data set on Syrian golden hamster [1] and in the data set with Syrian golden hamster [2] was “Non-toxic” each time.

For `CC1=CCC[C@@H]2[C@@](C)(CCC3=CC(=O)O[C@@H]3O)[C@H](C)CC[C@@]12C`, the IC50 in data set [6] amounted to 30.2 µM. In addition, the Ratio was 48 in the data set with Syrian golden hamster [7]; 12 in the data set on Syrian golden hamster [8]; 12 in the data set with Syrian golden hamster [18]; 46 in the data set with Syrian golden hamster [25]; 54 in the data set with Syrian golden hamster [29]. Further, the CL/F in data set [9] was 4.35 L/h/kg. In addition, the Activity is on record as 26% in the data set on Syrian golden hamster [10]; 43% in the data set with Syrian golden hamster [11]; “Non-toxic” with Syrian golden hamster [1]; 43% in the data set on Syrian golden hamster [12]; 54% in the data set with Syrian golden hamster [13]; 46% with Syrian golden hamster [14]. The Activity in the data set with Syrian golden hamster [15] is given as 23%; in the data set on Syrian golden hamster [3], 45%; in the data set with Syrian golden hamster [17] it was 48%; in the data set with Syrian golden hamster [19] it was 19%; with Syrian golden hamster [2], “Non-toxic”; in the data set on Syrian golden hamster [4], 41%. Moreover, the Activity in the data set with Syrian golden hamster [21] was 27%; in the data set on Syrian golden hamster [24], 55%; in the data set on Syrian golden hamster [26] it was 5%; in the data set with Syrian golden hamster [27] it was 10%; with Syrian golden hamster [5], 37%. The compound also gave a Cmax in [16] of 2.49 µg/mL. The Vz in the data set on Syrian golden hamster [20] came to 17.78 L/kg. Further, in data set [22], the MRT was found to be 4.52 h. For the same compound, the Tmax in data set [23] came to 0.5 h. In data set [28], this compound returned an AUC(0-t) of 5.74 µg·h/mL.
